Measured values: USRE40839E1 (The United States of America as represented by the …, priority 1992, dated 2009)

Columns and labels:
[1] = system: diffuse large cell lymphoma; test: 96 hour continuous infusion every 21 days in lymphoma patients; type: in vivo, human; conditions: 70-140 mg/M^2/96 hrs every 21 days
From the text: This 96 hr continuous infusion was repeated every 21 days, while patients were monitored for a response after every two cycles.

mammalian cells = conditions: actively dividing cells; cited from earlier work
patients = conditions: infusion times up to 24 hours; cited from earlier work
ovarian cancer = conditions: 34 patients with ovarian cancer; 250 mg/M^2 as 24 hour continuous infusion; cited from earlier work
melanoma = conditions: 30 patients with melanoma; 250 mg/M^2 as 24 hour continuous infusion; cited from earlier work
[2] = system: refractory acute leukemia; conditions: cited from earlier work
breast cancer [3] = conditions: 24 hour infusion at 250 mg/M^2; similar breast cancer patient group; cited from earlier work
breast cancer [4] = test: 96 hour continuous infusion every 21 days in breast cancer patients; conditions: 70-140 mg/M^2/96 hrs every 21 days
[5] = 6 patients with diffuse large cell lymphoma

CC(=O)O[C@H]1C(=O)[C@@]2(C)[C@H]([C@H](OC(=O)c3ccccc3)[C@]3(O)C[C@H](OC(=O)[C@H](O)[C@@H](NC(=O)c4ccccc4)c4ccccc4)C(C)=C1C3(C)C)[C@]1(OC(C)=O)CO[C@@H]1C[C@@H]2O [Taxol]
number of minor remissions (MR) [1, 5]: 1 patients
number of partial remissions (PR) [1, 5]: 3 patients
partial remission rate [1, 5]: 50%
patients in whom Taxol was active (PR + MR) ([1]; diffuse large cell lymphoma): 4 out of 6
Taxol concentration that usually causes a significant increase in microtubule number, changes in cell shape and mitotic arrest (mammalian cells): 50 Nm
dose limiting toxicity (patients): reversible myclosuppression
major toxicities (ovarian cancer): neutropenia and peripheral neuropathy
objective response rate (ovarian cancer): 21%
objective response rate (melanoma): 13%
toxicity limiting further dose escalation ([2]; 17 patients, 24 hour continuous infusion, 200 to 390 mg/M^2): Severe mucositis
maximum tolerated dose ([2]; 17 patients, 24 hour continuous infusion, escalated from 200 to 390 mg/M^2): 390 mg/M^2
patients with transient reductions in peripheral blood and bone marrow blasts ([2]; of 17 patients): Nine
response rate (breast cancer [3]): 33%
number of minor remissions (MR) (breast cancer [4]; 11 breast cancer patients): 2 patients
number of partial remissions (PR) (breast cancer [4]; 11 breast cancer patients): 7 patients
partial remission rate (breast cancer [4]; 11 breast cancer patients): 64%
total response rate (breast cancer [4]; 11 breast cancer patients): 82%
patients with positive response (PR + MR) (breast cancer [4]; breast cancer, prior doxorubicin or mitoxantrone regimen): 9 out of the 11
